Holding throughout (settings): stereoisomer not certain
The nature of data set [1]: RP, Merck Supelco Ascentis Express C18, 100 × 2.1 mm, 2 µm, 40 °C, 0.2 mL/min, estimated dead time 1.1 min; A: water + 0.1% formic acid, pH 3; B: acetonitrile + 0.1% formic acid, pH 3; gradient (min/%B) 0/5 2/5 17/99.9 20/99.9.
Assay in data set [2]: as above
The source holds these as a separate data set.

Data set [3] can be described thus: RP, Merck Supelco Ascentis Express C18, 100 × 2.1 mm, 2 µm, 40 °C, 0.4 mL/min, estimated dead time 0.55 min; A: water + 0.1% formic acid, pH 3; B: acetonitrile + 0.1% formic acid, pH 3; gradient (min/%B) 0/5 2/5 17/99.9 20/99.9.
Assay in data set [4]: as above
The source holds these as a separate data set.

Data set [5] in a line: RP, Merck Supelco Ascentis Express C18, 100 × 2.1 mm, 2 µm, 39 °C, 0.3 mL/min, estimated dead time 0.73 min; A: water + 0.1% formic acid, pH 3; B: acetonitrile + 0.1% formic acid, pH 3; gradient (min/%B) 0/5 2/5 17/99.9 20/99.9.
A short description of data set [6]: RP, Merck Supelco Ascentis Express C18, 100 × 2.1 mm, 2 µm, 40 °C, 0.25 mL/min, estimated dead time 0.88 min; A: water + 0.1% formic acid, pH 3; B: acetonitrile + 0.1% formic acid, pH 3; gradient (min/%B) 0/5 2/5 17/99.9 20/99.9.
Data set [7] can be described thus: RP, Merck Supelco Ascentis Express C18, 100 × 2.1 mm, 2 µm, 40 °C, 0.35 mL/min, estimated dead time 0.63 min; A: water + 0.1% formic acid, pH 3; B: acetonitrile + 0.1% formic acid, pH 3; gradient (min/%B) 0/5 2/5 17/99.9 20/99.9.

For `O=C(O)c1ccc2ccccc2c1O` [1-HYDROXY-2-NAPHTHOATE], the LC retention time is 10.4 min in data set [1]; 10.4 min in data set [2]; 8.61 min in data set [3]; 8.56 min in data set [4]; 9.28 min in data set [5]; 9.77 min in data set [6]. Also, the LC retention time in data set [7] was 8.9 min.
As to `O=CCc1c[nH]c2ccccc12` [INDOLEACETALDEHYDE], the LC retention time in data set [1] was 4.21 min; in data set [2] it was 4.97 min; in data set [3], 2.15 min; in data set [4], 2.17 min; in data set [5], 4.07 min; in data set [6], 4.45 min. The LC retention time in data set [7] is 2.45 min.
As to `COc1cc(CC(=O)O)ccc1O` [HOMOVANILLATE], the LC retention time in data set [1] is 5.43 min; in data set [2], 5.42 min; in data set [3] it was 3.96 min; in data set [4] it was 3.93 min; in data set [5], 4.5 min; in data set [6] it was 4.9 min. Moreover, the LC retention time in data set [7] is 4.18 min.
On to `O=C(O)/C=C/c1ccccc1` [TRANS-CINNAMATE], for which the LC retention time was 8.31 min in data set [1]; 8.28 min in data set [2]; 6.59 min in data set [3]; 6.54 min in data set [4]; 7.27 min in data set [5]; 7.67 min in data set [6]. For the same compound, the LC retention time in data set [7] was 6.86 min.
`CC(CCC(=O)O)C1CCC2C3C(O)CC4CC(O)CCC4(C)C3CC(O)C12C` (stereo not drawn) [CHOLATE]: the LC retention time in data set [1] is 10.3 min; in data set [2], 10.3 min; in data set [3], 8.94 min; in data set [4] it was 8.9 min; in data set [5] it was 9.4 min; in data set [6], 9.77 min. The LC retention time in data set [7] was 9.14 min.
Regarding `O=C(O)c1ccccc1[O-]` [SALICYLATE], the LC retention time in data set [1] is 5.3 min; in data set [2], 5.31 min; in data set [3], 3.62 min; in data set [4], 3.59 min; in data set [5] it was 4.28 min; in data set [6], 4.72 min. Also, in data set [7], the LC retention time was 3.9 min.
`O=C(O)Cc1cccc(O)c1` [3-HYDROXYPHENYLACETATE]: the LC retention time is 7.01 min in data set [1]; 7 min in data set [2]; 5.17 min in data set [3]; 5.14 min in data set [4]; 5.94 min in data set [5]; 6.34 min in data set [6]. The LC retention time in data set [7] was 5.5 min.
Turning to `CC(=O)NC(Cc1c[nH]c2ccccc12)C(=O)O` (stereo not drawn) [N-ACETYLTRYPTOPHAN], the LC retention time in data set [1] was 6.55 min; in data set [2], 6.55 min; in data set [3], 5.1 min; in data set [4], 5.08 min; in data set [5], 5.64 min; in data set [6], 6.02 min. Further, the LC retention time in data set [7] was 5.32 min.
For the compound `CCCCCCCCC=CCCCCCCCC(=O)OCC(O)CO` (stereo not drawn) [OLEOYL-GLYCEROL], the LC retention time was 17.3 min in data set [1]; 17.3 min in data set [2]; 15.1 min in data set [3]; 15.1 min in data set [4]; 15.9 min in data set [5]; 16.5 min in data set [6]. In addition, the LC retention time in data set [7] was 15.5 min.
In the case of `Cc1cc2nc3[nH]c(=O)[nH]c(=O)c3nc2cc1C` [LUMICHROME], the LC retention time in data set [1] is 6.93 min; in data set [2] it was 6.91 min; in data set [3], 5.54 min; in data set [4] it was 5.5 min; in data set [5] it was 6.03 min; in data set [6] it was 6.4 min. Besides, the LC retention time in data set [7] was 5.74 min.
As for `O=C(O)CCCCCCCCC(=O)O` [SEBACATE], the LC retention time is 7.81 min in data set [1]; 7.79 min in data set [2]; 6.39 min in data set [3]; 6.34 min in data set [4]; 6.92 min in data set [5]; 7.27 min in data set [6]. In data set [7], the LC retention time is 6.59 min.
In the case of `O=C(O)c1ccc(O)cc1` [4-HYDROXYBENZOATE], the LC retention time is 4.53 min in data set [1]; 4.53 min in data set [2]; 2.59 min in data set [3]; 2.54 min in data set [4]; 3.42 min in data set [5]; 3.91 min in data set [6]. Moreover, in data set [7], the LC retention time is 2.94 min.
For `CC12CCC(=O)C=C1CCC1C2C(O)CC2(C)C1CCC2(O)C(=O)CO` (stereo not drawn) [CORTISOL], the LC retention time in data set [1] is 8.04 min; in data set [2], 8.03 min; in data set [3] it was 6.69 min; in data set [4], 6.65 min; in data set [5] it was 7.17 min; in data set [6], 7.53 min. The LC retention time in data set [7] was 6.88 min.
As to `CC(=O)N1CCCC1C(=O)O` (stereo not drawn) [N-ACETYLPROLINE], the LC retention time was 2.76 min in data set [1]; 2.77 min in data set [2]; 1.46 min in data set [3]; 1.39 min in data set [4]; 1.89 min in data set [5]; 2.22 min in data set [6]. Further, the LC retention time in data set [7] is 1.58 min.
On to `O=C(O)c1cccc(O)c1O` [2,3-DIHYDROXYBENZOATE], for which the LC retention time was 5.33 min in data set [1]; 5.32 min in data set [2]; 1.53 min in data set [3]; 1.52 min in data set [4]; 2.06 min in data set [5]; 2.44 min in data set [6]. Further, in data set [7], the LC retention time is 3.88 min.
Take `CC(=O)NC(CC(C)C)C(=O)O` (stereo not drawn) [N-ACETYLLEUCINE]: the LC retention time in data set [1] was 5.89 min; in data set [2], 5.9 min; in data set [3], 4.39 min; in data set [4] it was 4.36 min; in data set [5] it was 4.93 min; in data set [6], 5.35 min. In addition, the LC retention time in data set [7] is 4.63 min.
`O=C(O)CCCCCC(=O)O` [6-CARBOXYHEXANOATE]: the LC retention time was 5.14 min in data set [1]; 5.13 min in data set [2]; 3.66 min in data set [3]; 3.63 min in data set [4]; 4.22 min in data set [5]; 4.61 min in data set [6]. Moreover, in data set [7], the LC retention time was 3.89 min.
For the compound `O=C(O)Cc1ccccc1O` [2-HYDROXYPHENYLACETATE], the LC retention time in data set [1] was 4.85 min; in data set [2], 4.83 min; in data set [3], 2.95 min; in data set [4], 2.88 min; in data set [5], 3.67 min; in data set [6], 4.19 min. Further, the LC retention time in data set [7] was 3.28 min.
Take `NC(=O)Cc1c[nH]c2ccccc12` [INDOLE-3-ACETAMIDE]: the LC retention time is 5.84 min in data set [1]; 5.83 min in data set [2]; 4.27 min in data set [3]; 4.23 min in data set [4]; 4.85 min in data set [5]; 5.28 min in data set [6]. Moreover, the LC retention time in data set [7] was 4.51 min.
